Data as given in patent US20220040123A1, “ANTI-HELICOBACTER FOOD COMPOSITION COMPRISING BETA-CARYOPHYLLENE” (priority 2018, published 2022).

What was measured:
[1] = tested on: CagA, VacA and SecA proteins; test: Western blotting of H. pylori toxins CagA, VacA and SecA; assay type: cell-based, Helicobacter pylori; conditions: 125, 250 and 500 μg/ml, 3 days culture
Experimental: To evaluate the effect of beta-caryophyllene treatment on the production of toxins secreted by Helicobacter pylori, Helicobacter pylori was treated with beta-caryophyllene, and then the amounts of CagA, VacA and SecA proteins were analyzed by Western blotting.
For Western blotting, samples obtained by treating Helicobacter pylori with beta-caryophyllene at concentrations of 0, 125, 250 and 500 μg/ml and culturing the treated Helicobacter pylori for 3 days were lysed with RIPA lysis buffer (Millipore) on ice for 30 minutes and then centrifuged. The supernatants were collected, and then proteins therein were quantified using a spectrophotometer (Infinite M200, TECAN).
Equal amounts of protein samples were loaded and electrophoresed on 10% SDS polyacrylamide gel, and the protein fractions were transferred to nitrocellulose membranes (PALL) and reacted with CagA (mouse monoclonal IgG antibody, Santa Cruz), VacA (rabbit polyclonal IgG antibody, Santa Cruz), SecA (rabbit polyclonal IgG antibody, produced by the applicant) and anti-Helicobacter pylori (rabbit polyclonal IgG antibody, produced by the applicant) antibodies at 4° C. for 16 hours. After completion of the primary antibody reaction, secondary blocking (1 hr/RT) was performed. As secondary antibodies, donkey anti-rabbit IgG-HRP, donkey anti-mouse IgG-HRP or donkey anti-goat IgG-HRP (Santa Cruz) was used depending on the primary antibody. The reaction products were treated by an enhanced chemiluminescence kit (Thermo), and then analyzed by Chemidoc (Fusion solo, Vilber Lourmat).

[2] = tested on: cagA, vacA and secA genes; test: RT-PCR of cagA, vacA and secA gene expression; assay type: cell-based, Helicobacter pylori; conditions: 31.25, 62.5, 125, 250 and 500 μg/ml
Experimental: In addition, in order to examine changes in expression of cagA, vacA and secA genes, H. pylori was treated with beta-caryophyllene at concentrations of 31.25, 62.5, 125, 250 and 500 μg/ml, and then RT-PCR was performed.

[3] = tested on: sabA, hopZ, hpaA, alpA, alpB and babA genes; test: RT-PCR of genes involved in the adhesion of H. pylori; assay type: cell-based, Helicobacter pylori; conditions: 31.25-500 μg/ml
Experimental: In order to evaluate the effect of beta-caryophyllene against the adhesion function of H. pylori, changes in the expression of the genes sabA, hopZ, hpaA, alpA, alpB and babA involved in the adhesion of H. pylori were analyzed, and the results are shown in FIG. 8. Specifically, H. pylori was treated with beta-caryophyllene at concentrations of 31.25, 62.5, 125, 250 and 500 μg/ml, and the expression of the genes was analyzed by RT-PCR.

[4] = tested on: flhA, flaA, flaB and flgE genes; test: RT-PCR of flagella-associated genes of H. pylori; assay type: cell-based, Helicobacter pylori; conditions: 31.25-500 μg/ml
Experimental: In order to evaluate the effect of beta-caryophyllene treatment on the inhibition of flagella of H. pylori, changes in the expression of the flhA, flaA, flaB and flgE genes which constitute the flagella or are associated with the function of the flagella were examined, and the results are shown in FIG. 9. Specifically, H. pylori was treated with beta-caryophyllene at concentrations of 31.25, 62.5, 125, 250 and 500 μg/ml, and expression of the genes was analyzed by RT-PCR.

[5] = tested on: dnaA, dnaN, holB and polA genes; test: Expression of DNA synthesis-related genes of H. pylori; assay type: cell-based, Helicobacter pylori; conditions: 31.25-500 μg/ml
Experimental: DNA replication is essential for the proliferation of Helicobacter pylori, and RNA synthesis (transcription process) is a process essential for protein synthesis in organisms. Thus, unless normal RNA synthesis occurs, normal life activity cannot be maintained. Accordingly, in order to evaluate the inhibitory effect of beta-caryophyllene against the proliferation of H. pylori, H. pylori was treated with beta-caryophyllene at concentrations of 31.25, 62.5, 125, 250 and 500 μg/ml, and changes in the expression of the DNA synthesis-related genes dnaA, dnaN, holB and polA were analyzed, and the results are shown in FIG. 10.

[6] = tested on: virB2, virB4, virB5, virB6, virB7, virB8, virB9, virB10 and virD4 genes; test: RT-PCR of type IV secretion system (T4SS) genes; assay type: cell-based, Helicobacter pylori; conditions: 31.25-500 μg/ml
Experimental: In order to evaluate the inhibitory effect of beta-caryophyllene against the CagA toxin injection ability of Helicobacter pylori, expression of virB2, virB4, virB5, virB6, virB7, virB8, virB9, virB10 and virD4 genes associated with the type IV secretion system (T4SS) structure required to inject the CagA toxin into a host cell was analyzed, and the results are shown in FIG. 11. Specifically, Helicobacter pylori was treated with beta-caryophyllene at concentrations of 31.25, 62.5, 125, 250 and 500 μg/ml, and expression of the genes was analyzed by RT-PCR.

H. pylori [7] = test: Gastric rapid urease test (CLO test), therapeutic rate; assay type: in vivo, C57BL/6 mouse; conditions: oral gavage, 28 days, control G3 30%
Experimental: (§1) In order to compare the Helicobacter pylori eradiation effect between beta-caryophyllene and the antibiotics that are used for treatment of Helicobacter pylori infection, an animal test was performed using the test groups and doses shown in Table 1 below.
(§2) Each test substance was suspended in an excipient according to the dose and administered to each mouse once a day at the same time every day for a total of 28 days in a dose of 5 ml per kg mouse (C57BL/6 mouse) by oral gavage method.
The rapid urease test is based on the principle according to which, when H. pylori is present in gastric mucosa, the bacteria produce ammonia by secreting urease while proliferating in a medium containing a test reagent and a pH indicator, and a change in the color of the pH indicator is examined.
The gastric mucosal tissue extracted on the day of the autopsy was collected aseptically and tested using a Campylobacter-like organism (CLO) test reagent. The tissue was incubated in an incubator at 37° C. for 2 hours, the resulting color changed from yellow to red, the sample was judged as positive. The number of mice determined to be positive was calculated as a percentage, and the therapeutic rate for H. pylori eradication by sample treatment was obtained using the following equation, and the results are shown in Table 2 below.
Therapeutic rate (%)=(number of samples−number of positive samples)/number of samples×100

H. pylori [8] = test: CLO score after the CLO test; assay type: in vivo, C57BL/6 mouse; conditions: for CLO score: 28 days, score 0-3, control G3 2.10
Experimental: as §1, §2
The mean and standard deviation of each group were calculated, and the difference between the values of the groups was compared, and the results are shown in Table 3 below.

**Q.** Which results are given for C=C1CC/C=C(\C)CC[C@@H]2[C@@H]1CC2(C)C [beta-caryophyllene]?
**A.** secretion of CagA (Western blot) [1]: inhibited; secretion of SecA (Western blot) [1]: inhibited; secretion of VacA (Western blot) [1]: inhibited; transcription of other genes, including UDP-galactose 4-epimerase (control) [2]: did not affect; transcription of toxin protein gene cagA [2]: tended to be inhibited; transcription of toxin protein gene vacA [2]: tended to be inhibited; expression of alpA gene [3]: decreased; expression of alpB gene [3]: decreased; expression of babA gene [3]: decreased; expression of flgE gene [4]: decreased; expression of flhA gene [4]: decreased; expression of dnaA gene [5]: increased; expression of dnaN gene [5]: significantly decreased; expression of holB gene [5]: significantly decreased; expression of polA gene [5]: increased; expression of virB2 gene [6]: significantly decreased; expression of virB4 gene [6]: significantly decreased; expression of virB8 gene [6]: significantly decreased; Therapeutic % (H. pylori [7]; G6: 100 mg/kg/day): 60%; Therapeutic % (H. pylori [7]; G7: 200 mg/kg/day): 56%; Therapeutic % (H. pylori [7]; G8: 500 mg/kg/day): 80%; CLO score (H. pylori [8]; G6: 100 mg/kg/day): 1.2; decrease of CLO score compared to G3 (H. pylori [8]; G6: 100 mg/kg/day, not statistically significant): 42.9%; CLO score (H. pylori [8]; G7: 200 mg/kg/day): 1.11; decrease of CLO score compared to G3 (H. pylori [8]; G7: 200 mg/kg/day, not statistically significant): 47.1%; CLO score (H. pylori [8]; G8: 500 mg/kg/day): 0.5; decrease of CLO score compared to G3 (H. pylori [8]; G8: 500 mg/kg/day, statistically significant): 76.2%
